From patent USRE47084E1, “Oral medicinal product with modified release of at least one active principle in multimicrocapsular form” (FLAMEL IRELAND LIMITED, priority 2003, dated 2018)
In brackets after ≈: the same amount, converted by molar mass.

Assay: Solubility of the active principles
Format: physicochemical

CC(=O)S[C@@H]1CC2=CC(=O)CC[C@]2(C)[C@H]2CC[C@@]3(C)[C@@H](CC[C@@]34CCC(=O)O4)[C@H]12 [Spironolactone]
solubility: 20 µg/mL (≈ 48 µM)

Nc1nc2c(ncn2COCCO)c(=O)[nH]1 [Acyclovir]
solubility: 10000 µg/mL (≈ 44400 µM)

O=C1CN(/N=C/c2ccc([N+](=O)[O-])o2)C(=O)N1 [Nitrofurantoin]
solubility: 300 µg/mL (≈ 1260 µM)

Cc1c(OCC(F)(F)F)ccnc1C[S+]([O-])c1nc2ccccc2[nH]1 (stereo not shown) [Lansoprazole]
solubility: 50 µg/mL (≈ 135 µM)
